Experimental data reported in the supplement of paper PMC7661543.
± gives the standard deviation of the averaged measurements.

Assays:
Assay in all cases: relative cell number vs DMSO control (72 h) (% of DMSO); higher = less growth inhibition (more cells)
Details in all cases: sgRNA knockout: sgNT
[1] = system: SKBR3
Method: (§1)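 QMAP-Seq: a pool of 5 breast cancer cell lines (ZR-75-1, SKBR3, HCC-38, MDA-MB-231, BT-20), each carrying 12 doxycycline-inducible Cas9 sgRNA perturbations (11 knockouts plus non-targeting sgNT), was treated with compounds for 72 h at four 10-fold doses (10 nM-10 uM or 1 nM-1 uM range). Barcodes were amplified and sequenced, and cell number was interpolated from 293T spike-in standard curves. The result is expressed as % of the median of DMSO wells. Two biological replicates.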

[2] = system: ZR-75-1
Method: as §1

[3] = system: MDA-MB-231
Method: as §1

[4] = system: HCC-38
Method: as §1

[5] = system: BT-20
Method: as §1

Structure (SMILES) | relative cell number ([1]; 10 nM) | relative cell number ([1]; 100 nM) | relative cell number ([1]; 1000 nM) | relative cell number ([1]; 10000 nM) | relative cell number ([2]; 10 nM) | relative cell number ([2]; 100 nM) | relative cell number ([2]; 1000 nM) | relative cell number ([2]; 10000 nM) | relative cell number ([3]; 10 nM) | relative cell number ([3]; 100 nM) | relative cell number ([3]; 1000 nM) | relative cell number ([3]; 10000 nM) | relative cell number ([4]; 10 nM) | relative cell number ([4]; 100 nM) | relative cell number ([4]; 1000 nM) | relative cell number ([4]; 10000 nM) | relative cell number ([5]; 10 nM) | relative cell number ([5]; 100 nM) | relative cell number ([5]; 1000 nM) | relative cell number ([5]; 10000 nM)
CC(C)(C#N)c1ccc(N2C(=O)OCc3cnc4ccc(-c5cnc6ccccc6c5)cc4c32)cc1 | 101 ± 19 | 100 ± 3 | 79.39 ± 0.72 | 49 ± 9.6 | 86.6 ± 16 | 116 ± 19 | 55.1 ± 1.7 | 38.4 ± 14 | 104 ± 25 | 94.3 ± 3.9 | 82.3 ± 23 | 49.7 ± 0.79 | 103 ± 28 | 97 ± 16 | 82.6 ± 15 | 33.2 ± 4.7 | 98.1 ± 10 | 102 ± 7 | 81.3 ± 1.9 | 50.8 ± 23
CC(C)(C(=O)NCC(F)(F)C(F)(F)F)C(=O)N[C@@H]1C(=O)Nc2ccccc2-c2ccccc21 | 91 ± 1.3 | 133 ± 6.6 | 99 ± 36 | 109 ± 22 | 76.9 ± 11 | 130 ± 2.6 | 92.1 ± 1.7 | 103 ± 30 | 85.7 ± 7.5 | 122 ± 30 | 104 ± 16 | 97.7 ± 28 | 118 ± 3.9 | 99.1 ± 4.5 | 107 ± 3.9 | 109 ± 13 | 102 ± 5.3 | 109 ± 5.9 | 107 ± 33 | 121 ± 1.3
CC(C)CC(=O)Nc1n[nH]c2c1CN(C(=O)C1CCN(C)CC1)C2(C)C | 108 ± 26 | 61.4 ± 27 | 30 ± 7.5 | 11.8 ± 1.6 | 70.6 ± 6.3 | 60.4 ± 13 | 31.4 ± 19 | 23.7 ± 10 | 112 ± 3.1 | 59.02 ± 0.15 | 18.8 ± 1.3 | 11 ± 4.8 | 112 ± 16 | 76.6 ± 10 | 42.4 ± 2 | 20.3 ± 0.83 | 114 ± 22 | 66.5 ± 1.9 | 43.3 ± 19 | 24.3 ± 1
CC(C)OC(=O)C1=CN(C(=O)c2ccc(F)c(F)c2)CC(C)(C)c2c1[nH]c1ccccc21 | 81.3 ± 2.4 | 98.8 ± 33 | 77.9 ± 12 | 89.9 ± 24 | 119 ± 27 | 123 ± 59 | 101 ± 44 | 102 ± 58 | 86.2 ± 4.9 | 72.1 ± 4.9 | 83.4 ± 6.3 | 130 ± 24 | 94.8 ± 12 | 89.2 ± 8.8 | 95.2 ± 4.8 | 90.8 ± 6 | 98.9 ± 6.3 | 70 ± 5.8 | 105 ± 24 | 99.6 ± 25
COc1cc2nc(N3CCCN(C)CC3)nc(NC3CCN(Cc4ccccc4)CC3)c2cc1OC | 98.3 ± 25 | 93.735 ± 0.032 | 75 ± 25 | 5.97 ± 3.4 | 102 ± 40 | 102 ± 45 | 109 ± 6.8 | 2.54 ± 0.52 | 123 ± 5.1 | 94.5 ± 18 | 80.2 ± 13 | 9.21 ± 8.3 | 111 ± 19 | 104 ± 19 | 85.8 ± 5.5 | 5.39 ± 3.1 | 82 ± 20 | 91.6 ± 8.2 | 84.4 ± 5.3 | 5.57 ± 2.9
COc1ccc(-c2ccc3c(N4CCOCC4)nc(N4C[C@@H](C)O[C@@H](C)C4)nc3n2)cc1CO | 84.2 ± 39 | 110 ± 26 | 80.7 ± 2.5 | 51.5 ± 6.7 | 65.9 ± 21 | 116 ± 21 | 101 ± 4.9 | 36.1 ± 2.1 | 85.2 ± 1.6 | 166 ± 26 | 113 ± 5.1 | 57.7 ± 19 | 100 ± 8.5 | 115 ± 5.9 | 92.1 ± 13 | 48.9 ± 3.5 | 110 ± 9.1 | 119 ± 17 | 77.5 ± 5.5 | 57.6 ± 7.1
CS(=O)(=O)c1cccc(CNc2nc(Nc3ccc4c(c3)CCC(=O)N4)ncc2C(F)(F)F)c1 | 85.7 ± 19 | 110.3 ± 0.38 | 87.3 ± 18 | 54.4 ± 9.9 | 98.8 ± 47 | 170 ± 92 | 80.9 ± 4.7 | 45.1 ± 2.2 | 122 ± 34 | 123.1 ± 0.038 | 103 ± 6.8 | 32.1 ± 9.6 | 96.9 ± 21 | 119 ± 18 | 86.8 ± 25 | 50.5 ± 4.3 | 118 ± 28 | 145 ± 3.4 | 105.9 ± 0.85 | 57 ± 3.3
C[C@@H](Oc1cc(-n2cnc3ccc(CN4CCN(C)CC4)cc32)sc1C(N)=O)c1ccccc1C(F)(F)F | 13.6 ± 4.1 | 13.5 ± 1.8 | 13.4 ± 4.3 | 23.5 ± 4.7 | 112 ± 14 | 22.1 ± 8.8 | 27.7 ± 3.9 | 29.7 ± 12 | 40.66 ± 0.27 | 19.5 ± 2.2 | 12.5 ± 0.32 | 8.66 ± 5.4 | 23.8 ± 3.1 | 16.7 ± 4.5 | 17.3 ± 0.54 | 17.6 ± 4.5 | 48.1 ± 11 | 26.1 ± 17 | 31.8 ± 0.68 | 23.3 ± 2.4
C[C@@H]1CN(CC(=O)Nc2ccc3c(c2)Cc2cccc(-c4cc(=O)cc(N5CCOCC5)o4)c2S3)C[C@H](C)O1 | 86.5 ± 26 | 95.9 ± 33 | 87.7 ± 36 | 33.6 ± 4.6 | 95.6 ± 6 | 92.7 ± 26 | 80.8 ± 9.4 | 38.7 ± 11 | 111 ± 4.9 | 85.1 ± 5.2 | 95.9 ± 20 | 59.4 ± 6.4 | 89.9 ± 3.7 | 110 ± 4.4 | 76.9 ± 3.3 | 64.3 ± 9.2 | 73.7 ± 24 | 119 ± 3.5 | 108 ± 8.4 | 62.4 ± 3.5
C[C@@]1(C(=O)Nc2ccc(F)nc2)CCCN1c1nc(Nc2cc(C3CC3)n[nH]2)c2cccn2n1 | 72 ± 24 | 89.9 ± 15 | 74.8 ± 14 | 66 ± 6.5 | 92.7 ± 27 | 73.9 ± 16 | 36 ± 18 | 30.8 ± 12 | 126 ± 33 | 96.4 ± 18 | 70.4 ± 5.7 | 43.2 ± 7.3 | 87.8 ± 4.9 | 82.5 ± 10 | 81.5 ± 2.7 | 45.49 ± 0.25 | 77.5 ± 8.7 | 89.5 ± 17 | 90 ± 11 | 67.5 ± 16
Cc1[nH]c(/C=C2\C(=O)Nc3ccc(S(=O)(=O)N(C)c4cccc(Cl)c4)cc32)c(C)c1C(=O)N1CCN(C)CC1 | 90.1 ± 7.7 | 102 ± 8.9 | 87.4 ± 16 | 59.6 ± 16 | 95.1 ± 14 | 97.4 ± 3.6 | 54 ± 27 | 37.5 ± 6 | 134 ± 62 | 94.8 ± 19 | 95.3 ± 23 | 42.5 ± 11 | 109 ± 14 | 92.58 ± 0.79 | 90.6 ± 7.8 | 55.2 ± 1.4 | 89.8 ± 4.6 | 95 ± 19 | 74.8 ± 2.8 | 60.9 ± 35
Cc1c(Cn2c(C)nc3c(C(=O)O)cc(N4CCOCC4)cc32)cccc1C(F)(F)F | 137 ± 8 | 123 ± 22 | 98.4 ± 25 | 99.1 ± 8.4 | 126 ± 2.5 | 98.6 ± 13 | 72.1 ± 7 | 108 ± 53 | 105 ± 4.5 | 123 ± 22 | 93.9 ± 27 | 112 ± 23 | 115 ± 17 | 85.5 ± 2.4 | 108 ± 19 | 102 ± 10 | 100 ± 7.3 | 117 ± 23 | 87 ± 10 | 82.1 ± 1.1
